Measured values as given in PubChem BioAssay AID1963423 (Molecular Pharmacology Branch, DTP, NCI, 2024).
Values joined by “and” are separate entries in the source; they are usually repeats but may differ in a detail not shown here. Identical values can stand only once.

System: 439559-082-T-J2-PDC complex spheroid growth
Assay: Anticancer human tumor 439559-082-T-J2-PDC patient-derived colon adenocarcinoma cell line growth inhibition [Asc]
Settings: for viability, T/C: stronger effect = lower value
Summary of the method: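 Tumor cells were grown as multicellular spheroids with stromal HUVEC and mesenchymal stem cells and treated singly or in combination. Concentrations fell in half-log steps from the clinical Cmax, or from 10 microM where none was known.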
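Further: spheroids exposed to agents for 7 days starting day 3 after seeding.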
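Wherever viability, T/C is given: percent of DMSO vehicle control viability with 100% = vehicle.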

## NC1CCC(NC2CC2c2ccccc2)CC1 (centres undefined) + CNC(C)C(=O)NC1CN(S(=O)(=O)c2cccc(S(=O)(=O)N3CCC4CCC(C(=O)NC(c5ccccc5)c5ccccc5)N4C(=O)C(NC(=O)C(C)NC)C3)c2)CCC2CCC(C(=O)NC(c3ccccc3)c3ccccc3)N2C1=O
Curve of first compound, second compound 0.00316 µM
  IC50: > 100 nM
Curve of first compound, second compound 0.01 µM
  IC50: > 100 nM
Curve of first compound, second compound 0.0316 µM
  IC50: > 100 nM
Curve of first compound, second compound 0.1 µM
  IC50: > 100 nM
Curve of first compound, second compound 0.316 µM
  IC50: > 100 nM
Curve of first compound, second compound 1 µM
  IC50: > 100 nM
Second compound 0.00316 µM, first compound 0.000316 µM
  viability, T/C: 104%
Second compound 0.00316 µM, first compound 0.001 µM
  viability, T/C: 100%
Second compound 0.00316 µM, first compound 0.00316 µM
  viability, T/C: 110%
Second compound 0.00316 µM, first compound 0.01 µM
  viability, T/C: 95.7%
Second compound 0.00316 µM, first compound 0.0316 µM
  viability, T/C: 98.4%
Second compound 0.00316 µM, first compound 0.1 µM
  viability, T/C: 98.2%
Second compound 0.01 µM, first compound 0.000316 µM
  viability, T/C: 102%
Second compound 0.01 µM, first compound 0.001 µM
  viability, T/C: 95%
Second compound 0.01 µM, first compound 0.00316 µM
  viability, T/C: 109%
Second compound 0.01 µM, first compound 0.01 µM
  viability, T/C: 111%
Second compound 0.01 µM, first compound 0.0316 µM
  viability, T/C: 99.5%
Second compound 0.01 µM, first compound 0.1 µM
  viability, T/C: 107%
Second compound 0.0316 µM, first compound 0.000316 µM
  viability, T/C: 107%
Second compound 0.0316 µM, first compound 0.001 µM
  viability, T/C: 91.3%
Second compound 0.0316 µM, first compound 0.00316 µM
  viability, T/C: 101%
Second compound 0.0316 µM, first compound 0.01 µM
  viability, T/C: 109%
Second compound 0.0316 µM, first compound 0.0316 µM
  viability, T/C: 104%
Second compound 0.0316 µM, first compound 0.1 µM
  viability, T/C: 107%
Second compound 0.1 µM, first compound 0.000316 µM
  viability, T/C: 105%
Second compound 0.1 µM, first compound 0.001 µM
  viability, T/C: 101%
Second compound 0.1 µM, first compound 0.00316 µM
  viability, T/C: 98.1%
Second compound 0.1 µM, first compound 0.01 µM
  viability, T/C: 104%
Second compound 0.1 µM, first compound 0.0316 µM
  viability, T/C: 96.4%
Second compound 0.1 µM, first compound 0.1 µM
  viability, T/C: 98%
Second compound 0.316 µM, first compound 0.000316 µM
  viability, T/C: 95.9%
Second compound 0.316 µM, first compound 0.001 µM
  viability, T/C: 101%
Second compound 0.316 µM, first compound 0.00316 µM
  viability, T/C: 93.6%
Second compound 0.316 µM, first compound 0.01 µM
  viability, T/C: 100%
Second compound 0.316 µM, first compound 0.0316 µM
  viability, T/C: 101%
Second compound 0.316 µM, first compound 0.1 µM
  viability, T/C: 97%
Second compound 1 µM, first compound 0.000316 µM
  viability, T/C: 85.5%
Second compound 1 µM, first compound 0.001 µM
  viability, T/C: 85.9%
Second compound 1 µM, first compound 0.00316 µM
  viability, T/C: 87.4%
Second compound 1 µM, first compound 0.01 µM
  viability, T/C: 84.5%
Second compound 1 µM, first compound 0.0316 µM
  viability, T/C: 86.3%
Second compound 1 µM, first compound 0.1 µM
  viability, T/C: 77.3%

## NC(=O)C(=Cn1cnc(-c2cc(C(F)(F)F)cc(C(F)(F)F)c2)n1)c1cncnc1
Compound 0.000949 µM
  viability, T/C: 111% and 110% and 105%
Compound 0.003 µM
  viability, T/C: 105% and 102% and 86.8%
Compound 0.00949 µM
  viability, T/C: 101% and 99% and 94.4%
Compound 0.03 µM
  viability, T/C: 101% and 91.7% and 89.8%
Compound 0.0949 µM
  viability, T/C: 92.7% and 89.7% and 90.7%
Compound 0.3 µM
  viability, T/C: 82% and 86.4% and 78.2%
Curve of compound
  IC50: > 300 nM
